Results on one compound are retold here after patent US12162843B2, “High-purity thermostable crystal form of substituted 3-isoxazolidinone compound, preparation method therefor and application thereof” (ZHEJIANG ZHUJI UNITED CHEMICALS CO., LTD., priority 2019, dated 2024).

The series can be described thus: Stability experiment of the orthorhombic crystal (PXRD before and after storage). It counts as physicochemical. As to conditions: high-temperature (60±2° C.) oven, 90±5% humidity, 4500±5001 ux light intensity, 10 days, samples on 5th and 10th days. The procedure:
A further object of the application is to investigate stability of the orthorhombic crystal of the 2-[(2,4-dichlorophenyl)methyl]-4,4-dimethyl-3-isoxazolidinone compound (Formula I). The orthorhombic crystal is stored in a high-temperature (60±2° C.) oven, in a 90±5% humidity condition, and under 4500±5001 ux light intensity for 10 days, respectively, during which samples are collected on the 5th and 10th days for a PXRD analysis.
A PXRD diffractometer (X′Pert PRO, PNAlytical, Netherlands) is employed to collect the following specific data: Cu anode=40 kV, 150 mA, 2θ scanning range=0°˜45°, scanning speed=8°/min, step size=0.02°, divergence slit (DS)=1°, anti-scattering slit=(SS) 1°, and receiving slit (RS)=0.15 mm.
The crystals of the 2-[(2,4-dichlorophenyl)methyl]-4,4-dimethyl-3-isoxazolidinone compound (Formula I) obtained in embodiments 3, 4, 5, and 6 are respectively placed in a high-temperature (60±2° C.) oven, in a 90±5% humidity condition, and under 4500±5001 ux light intensity for 10 days. Samples are collected on the 5th and 10th days for the PXRD analysis.

For the compound `CC1(C)CON(Cc2ccc(Cl)cc2Cl)C1=O` [orthorhombic crystal, 2-[(2,4-dichlorophenyl)methyl]-4,4-dimethyl-3-isoxazolidinone], the “stability of the crystal form (PXRD before and after storage)” value was “stable crystal form under high temperature, humidity and light intensity conditions”. The “stability of the crystal form (PXRD before and after storage)” value (listed as orthorhombic crystals) was “remain stable under high temperature, high humidity, and light intensity”.
